Activity calls are given as the source filed them. No cut-off for these calls is given here.
Key:
[1] = molecular target: T1, Tyrosine-protein phosphatase non-receptor type 1 (Homo sapiens, UniProt P18031); experiment: Inhibition of GST-tagged PTP1B (unknown origin) using pNPP as substrate measured for 3 mins by colorimetric assay
T1 sequence (P18031 whole entry): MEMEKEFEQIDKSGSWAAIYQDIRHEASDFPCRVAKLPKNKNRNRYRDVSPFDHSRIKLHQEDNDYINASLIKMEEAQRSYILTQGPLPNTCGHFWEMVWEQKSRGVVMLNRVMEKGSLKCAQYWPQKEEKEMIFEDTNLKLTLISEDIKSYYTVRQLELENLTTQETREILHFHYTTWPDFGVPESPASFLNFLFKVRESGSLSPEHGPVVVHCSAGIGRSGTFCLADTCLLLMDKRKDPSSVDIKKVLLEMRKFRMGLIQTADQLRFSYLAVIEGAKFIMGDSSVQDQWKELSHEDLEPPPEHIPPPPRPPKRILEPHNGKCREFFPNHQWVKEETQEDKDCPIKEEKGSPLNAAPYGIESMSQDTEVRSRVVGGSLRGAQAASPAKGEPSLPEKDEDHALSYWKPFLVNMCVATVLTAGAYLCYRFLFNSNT

[2] = molecular target: T2, Tyrosine-protein phosphatase non-receptor type 11 (Homo sapiens, UniProt Q06124); experiment: Inhibition of SHP2 (unknown origin) using 3-o-methylfluorescein phosphate as substrate by fluorescence assay
T2 sequence (Q06124 whole entry): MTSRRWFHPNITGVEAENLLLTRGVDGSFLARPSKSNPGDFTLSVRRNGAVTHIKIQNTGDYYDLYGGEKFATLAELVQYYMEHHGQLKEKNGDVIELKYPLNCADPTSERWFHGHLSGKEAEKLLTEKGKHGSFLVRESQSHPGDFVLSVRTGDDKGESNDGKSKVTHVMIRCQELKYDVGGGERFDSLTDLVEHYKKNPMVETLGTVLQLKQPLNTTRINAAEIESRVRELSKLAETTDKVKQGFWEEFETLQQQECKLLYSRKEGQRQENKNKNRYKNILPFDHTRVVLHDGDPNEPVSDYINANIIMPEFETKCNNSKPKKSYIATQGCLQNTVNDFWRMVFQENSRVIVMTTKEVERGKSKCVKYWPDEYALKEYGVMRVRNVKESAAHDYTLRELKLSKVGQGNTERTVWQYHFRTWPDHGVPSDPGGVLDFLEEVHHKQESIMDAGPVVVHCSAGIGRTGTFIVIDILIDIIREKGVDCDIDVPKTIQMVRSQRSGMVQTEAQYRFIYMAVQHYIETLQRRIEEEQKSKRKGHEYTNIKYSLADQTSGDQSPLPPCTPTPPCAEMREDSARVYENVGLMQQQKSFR

[3] = molecular target: T3, Tyrosine-protein phosphatase non-receptor type 11 (Homo sapiens) (UniProt Q06124); experiment: Inhibition of SHP2 (unknown origin) at 20 ug/ml using 3-o-methylfluorescein phosphate as substrate by fluorescence assay relative to control
T3 sequence (whole entry): T2 sequence (Q06124 whole entry)

[4] = molecular target: T4, Tyrosine-protein phosphatase non-receptor type 1 (Homo sapiens) (UniProt P18031); experiment: Inhibition of GST-tagged PTP1B (unknown origin) at 20 ug/ml using pNPP as substrate measured for 3 mins by colorimetric assay relative to control
T4 sequence (whole entry): T1 sequence (P18031 whole entry)

[5] = molecular target: T5, Tyrosine-protein phosphatase non-receptor type 2 (Homo sapiens, UniProt P17706); experiment: Inhibition of GST-tagged TCPTP (unknown origin) using pNPP as substrate measured for 3 mins by colorimetric assay
T5 sequence (P17706 whole entry): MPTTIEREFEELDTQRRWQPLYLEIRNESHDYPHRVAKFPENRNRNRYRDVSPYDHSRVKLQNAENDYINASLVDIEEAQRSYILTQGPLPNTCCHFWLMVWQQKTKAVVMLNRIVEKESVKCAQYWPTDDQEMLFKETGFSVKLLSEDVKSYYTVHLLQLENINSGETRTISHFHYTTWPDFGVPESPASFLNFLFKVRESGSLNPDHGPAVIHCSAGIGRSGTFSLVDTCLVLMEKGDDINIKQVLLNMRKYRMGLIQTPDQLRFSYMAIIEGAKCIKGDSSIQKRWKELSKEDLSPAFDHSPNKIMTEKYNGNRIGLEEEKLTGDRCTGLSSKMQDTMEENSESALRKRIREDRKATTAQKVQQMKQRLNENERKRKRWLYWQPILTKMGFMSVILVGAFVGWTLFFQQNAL

[6] = molecular target: Tyrosine-protein phosphatase non-receptor type 6 (Homo sapiens) (UniProt P29350); experiment: Inhibition of SHP1 (unknown origin) at 20 ug/ml using 3-o-methylfluorescein phosphate as substrate by fluorescence assay relative to control
Tyrosine-protein phosphatase non-receptor type 6 (Homo sapiens), sequence (P29350 whole entry): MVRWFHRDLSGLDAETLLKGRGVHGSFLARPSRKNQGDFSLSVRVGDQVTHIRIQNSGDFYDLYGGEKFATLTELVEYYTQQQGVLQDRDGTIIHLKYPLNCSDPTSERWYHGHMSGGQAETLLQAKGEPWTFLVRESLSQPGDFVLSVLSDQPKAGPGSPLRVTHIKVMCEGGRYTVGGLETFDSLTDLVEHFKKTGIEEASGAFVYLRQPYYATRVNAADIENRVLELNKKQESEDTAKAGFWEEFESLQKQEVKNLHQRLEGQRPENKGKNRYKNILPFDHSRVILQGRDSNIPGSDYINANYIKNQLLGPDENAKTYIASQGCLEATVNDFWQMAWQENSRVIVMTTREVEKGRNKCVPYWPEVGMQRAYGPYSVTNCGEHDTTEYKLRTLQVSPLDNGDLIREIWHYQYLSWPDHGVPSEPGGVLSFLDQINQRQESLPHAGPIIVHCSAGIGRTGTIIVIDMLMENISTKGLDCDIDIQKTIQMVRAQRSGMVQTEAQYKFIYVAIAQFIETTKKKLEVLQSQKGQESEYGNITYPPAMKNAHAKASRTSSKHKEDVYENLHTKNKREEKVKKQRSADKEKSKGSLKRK

[7] = molecular target: T3, Tyrosine-protein phosphatase non-receptor type 11 (Homo sapiens); experiment: Reversible inhibition of SHP2 (unknown origin) using DiFMUP as substrate by enzyme kinetics based dialysis assay
[8] = molecular target: T3, Tyrosine-protein phosphatase non-receptor type 11 (Homo sapiens); experiment: Fast binding inhibition of SHP2 (unknown origin) using DiFMUP as substrate by enzyme kinetics assay
Homo sapiens [9] = organism: Homo sapiens; experiment: Selectivity index, ratio of IC50 for SHP1 (unknown origin) to IC50 for SHP2 (unknown origin)
Homo sapiens [10] = organism: Homo sapiens; experiment: Selectivity index, ratio of IC50 for SHP2 (unknown origin) to IC50 for GST-tagged TCPTP (unknown origin)
[11] = molecular target: T3, Tyrosine-protein phosphatase non-receptor type 11 (Homo sapiens); experiment: Competitive inhibition of SHP2 (unknown origin) assessed as increase in Km with constant Vmax using DiFMUP as substrate by Lineweaver-Burk plot analysis

| Compound | IC50 [1] | IC50 [2] | inhibition [3] | other results |
| --- | --- | --- | --- | --- |
| O=C(Nc1ccccc1)c1ccc(-c2ccc(C(=O)Nc3ccccc3)s2)cc1 | 3.52 µM | 5.75 µM |  |  |
| O=C(Nc1ccccc1)c1ccc(-c2ccc(C(=O)Nc3ccccc3)o2)cc1 | 3.48 µM | 4.63 µM |  |  |
| O=C(NC1CCCCC1)c1ccc(-c2ccc(C(=O)NC3CCCCC3)o2)cc1 |  |  | < 50% | inhibition [4]: < 50% |
| O=C(Nc1ccccc1)c1ccc(-c2ncc(C(=O)Nc3ccccc3)s2)cc1 | 7.94 µM |  | < 50% |  |
| O=C(Nc1ccccc1)c1ccc(-c2ccc(C(=O)Nc3ccccc3)[nH]2)cc1 | 23.4 µM |  | < 50% |  |
| O=C(Nc1ccc(F)cc1)c1ccc(-c2ccc(C(=O)Nc3ccc(F)cc3)[nH]2)cc1 | 28.3 µM | 20.3 µM |  |  |
| O=C(Nc1ccc(Cl)cc1)c1ccc(-c2ccc(C(=O)Nc3ccc(Cl)cc3)o2)cc1 | 15.7 µM |  | < 50% |  |
| O=C(Nc1ccc(F)cc1)c1ccc(-c2ccc(C(=O)Nc3ccc(F)cc3)s2)cc1 |  | 2.63 µM |  | inhibition [4]: < 50%; IC50 [5]: 9.16 µM; inhibition [6]: < 50%; inhibition [7]: Active; inhibition [8]: Active; Ratio IC50 (Homo sapiens [9]): > 43.8; Ratio IC50 (Homo sapiens [10]): 4; inhibition [11]: Active |
| O=C(Nc1ccc(F)cc1)c1ccc(-c2ncc(C(=O)Nc3ccc(F)cc3)s2)cc1 |  | 4.63 µM |  | inhibition [4]: < 50% |
| O=C(Nc1ccc(F)cc1)c1ccc(-c2ccc(C(=O)Nc3ccc(F)cc3)o2)cc1 | 10.5 µM |  | < 50% |  |
| SODIUM ORTHOVANAD |  |  |  | Ratio IC50 (Homo sapiens [9]): 1.92 |
| O=C(NC1CCCCC1)c1ccc(-c2ccc(C(=O)NC3CCCCC3)s2)cc1 | 4.88 µM | 10.7 µM |  |  |
